Experiment: mn = molality of the nth substance listed, in mol/kg
Conditions: 101 kPa, Liquid, Alternating current cell with electrodes

C[N+](C)(C)CCO.O=C([O-])C(F)(F)C(F)(F)C(F)(F)C(F)(F)F [(2-hydroxyethyl)trimethylammonium perfluoropentanoate] + O
Conditions	electrical conductivity [S/m]
293.15 K, m1 = 0.000529	0.0033
293.15 K, m1 = 0.001164	0.0074
293.15 K, m1 = 0.001886	0.012
293.15 K, m1 = 0.002281	0.0144
293.15 K, m1 = 0.002766	0.0174
293.15 K, m1 = 0.003311	0.0207
293.15 K, m1 = 0.003805	0.0236
293.15 K, m1 = 0.004377	0.0271
293.15 K, m1 = 0.004908	0.0302
293.15 K, m1 = 0.005409	0.033
293.15 K, m1 = 0.005979	0.0364
293.15 K, m1 = 0.006697	0.0404
293.15 K, m1 = 0.007467	0.0447
293.15 K, m1 = 0.008082	0.0481
293.15 K, m1 = 0.00858	0.0508
293.15 K, m1 = 0.009905	0.058
293.15 K, m1 = 0.01142	0.066
293.15 K, m1 = 0.0124	0.0711
293.15 K, m1 = 0.01324	0.0753
293.15 K, m1 = 0.01399	0.0792
293.15 K, m1 = 0.01513	0.085
293.15 K, m1 = 0.01598	0.0891
293.15 K, m1 = 0.01695	0.0936
293.15 K, m1 = 0.01789	0.098
293.15 K, m1 = 0.01884	0.102
293.15 K, m1 = 0.01994	0.108
293.15 K, m1 = 0.02076	0.112
293.15 K, m1 = 0.02179	0.116
293.15 K, m1 = 0.02264	0.12
293.15 K, m1 = 0.02348	0.123
293.15 K, m1 = 0.0245	0.128
298.15 K, m1 = 0.00173	0.0127
298.15 K, m1 = 0.003076	0.0222
298.15 K, m1 = 0.004761	0.0337
298.15 K, m1 = 0.006222	0.0434
298.15 K, m1 = 0.007398	0.0509
298.15 K, m1 = 0.008599	0.0589
298.15 K, m1 = 0.01005	0.0687
298.15 K, m1 = 0.01198	0.0799
298.15 K, m1 = 0.01368	0.0892
298.15 K, m1 = 0.01543	0.0996
298.15 K, m1 = 0.01692	0.108
298.15 K, m1 = 0.0184	0.116
298.15 K, m1 = 0.02111	0.131
298.15 K, m1 = 0.02244	0.138
298.15 K, m1 = 0.02415	0.148
298.15 K, m1 = 0.02609	0.158
298.15 K, m1 = 0.02818	0.17
298.15 K, m1 = 0.031	0.183
298.15 K, m1 = 0.03389	0.198
298.15 K, m1 = 0.03746	0.215
298.15 K, m1 = 0.04011	0.228
298.15 K, m1 = 0.04312	0.245
303.15 K, m1 = 0.000602	0.005
303.15 K, m1 = 0.001118	0.0092
303.15 K, m1 = 0.001883	0.0153
303.15 K, m1 = 0.002669	0.0214
303.15 K, m1 = 0.002939	0.0235
303.15 K, m1 = 0.003765	0.0297
303.15 K, m1 = 0.004158	0.0325
303.15 K, m1 = 0.004947	0.0388
303.15 K, m1 = 0.005615	0.0446
303.15 K, m1 = 0.006164	0.0494
303.15 K, m1 = 0.006758	0.0518
303.15 K, m1 = 0.007514	0.0567
303.15 K, m1 = 0.008082	0.0606
303.15 K, m1 = 0.008631	0.0643
303.15 K, m1 = 0.009197	0.0673
303.15 K, m1 = 0.01012	0.0743
303.15 K, m1 = 0.01148	0.0832
303.15 K, m1 = 0.01208	0.0872
303.15 K, m1 = 0.0126	0.0906
303.15 K, m1 = 0.0131	0.0936
303.15 K, m1 = 0.01373	0.0973
303.15 K, m1 = 0.01442	0.102
303.15 K, m1 = 0.01495	0.105
303.15 K, m1 = 0.01641	0.114
303.15 K, m1 = 0.01705	0.118
303.15 K, m1 = 0.01772	0.121
303.15 K, m1 = 0.01824	0.124
303.15 K, m1 = 0.01885	0.128
303.15 K, m1 = 0.01941	0.131
303.15 K, m1 = 0.01993	0.134

From the NIST ThermoML archive (doi:10.1021/acs.jced.6b00455)
